The compounds below were run against T1, JAK3 (Homo sapiens, UniProt P52333) (assay: Inhibition of a panel of kinases, in vitro HotSpot kinase assay: JAK3). Conditions: Table 13, A compounds; 1 μM ATP; read-out: IC50 JAK3.
T1 sequence (P52333 1-1124): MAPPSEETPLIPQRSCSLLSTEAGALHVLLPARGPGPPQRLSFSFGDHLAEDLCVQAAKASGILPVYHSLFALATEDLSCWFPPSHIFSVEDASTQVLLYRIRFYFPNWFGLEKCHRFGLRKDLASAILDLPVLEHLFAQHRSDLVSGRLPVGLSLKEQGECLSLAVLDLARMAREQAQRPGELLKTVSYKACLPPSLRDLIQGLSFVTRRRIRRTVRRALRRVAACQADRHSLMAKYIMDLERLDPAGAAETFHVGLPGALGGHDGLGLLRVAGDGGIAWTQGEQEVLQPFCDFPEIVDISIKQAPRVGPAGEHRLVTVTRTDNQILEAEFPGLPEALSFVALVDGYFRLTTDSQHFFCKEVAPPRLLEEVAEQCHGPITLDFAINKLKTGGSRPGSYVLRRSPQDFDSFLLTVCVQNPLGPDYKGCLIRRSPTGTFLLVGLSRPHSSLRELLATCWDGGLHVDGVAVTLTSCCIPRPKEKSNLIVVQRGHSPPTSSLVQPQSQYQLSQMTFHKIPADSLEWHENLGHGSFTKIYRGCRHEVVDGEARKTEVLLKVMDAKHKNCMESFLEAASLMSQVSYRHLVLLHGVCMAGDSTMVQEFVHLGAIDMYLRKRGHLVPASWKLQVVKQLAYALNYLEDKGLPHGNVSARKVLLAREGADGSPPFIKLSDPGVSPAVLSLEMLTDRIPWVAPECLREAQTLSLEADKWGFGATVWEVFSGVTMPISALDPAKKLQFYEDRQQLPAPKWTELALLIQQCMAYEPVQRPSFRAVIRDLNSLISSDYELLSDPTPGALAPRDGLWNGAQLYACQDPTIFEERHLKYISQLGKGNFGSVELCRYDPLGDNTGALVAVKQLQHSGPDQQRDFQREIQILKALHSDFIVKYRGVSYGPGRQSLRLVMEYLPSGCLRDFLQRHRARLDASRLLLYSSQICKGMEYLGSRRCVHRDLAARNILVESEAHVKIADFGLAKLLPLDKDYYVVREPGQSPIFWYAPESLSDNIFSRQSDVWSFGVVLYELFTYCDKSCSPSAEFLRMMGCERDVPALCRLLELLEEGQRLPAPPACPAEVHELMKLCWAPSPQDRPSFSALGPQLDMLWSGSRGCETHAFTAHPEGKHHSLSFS
Format: biochemical

Row | SMILES | IC50
1 | CN(C)C(=O)N[C@@H]1CCCN(c2cnc(C(N)=O)c(Nc3ccc(C4(C)CCN(C5CCCC5)CC4)cc3)n2)[C@@H]1CO [Example A-101, 3-{[4-(1-cyclopentyl-4-methylpiperidin-4-yl)phenyl]amino}-5-[(2S,3R)-3-[(dimethylcarbamoyl)amino]-2-(hydroxymethyl)piperidin-1-yl]pyrazine-2-carboxamide] | 1000 to 10000 nM
2 | C[C@@H]1[C@H](NC(=O)c2ccc(C3CC3)cc2F)CCCN1c1cnc(C(N)=O)c(Nc2ccc(CN3CCN(C)CC3)cc2)n1 [Example A-106, 5-[(2R,3R)-3-(4-cyclopropyl-2-fluorobenzamido)-2-methylpiperidin-1-yl]-3-({4-[(4-methylpiperazin-1-yl)meth-yl]phenyl}amino)pyrazine-2-carboxamide] | 100 to 1000 nM
3 | Cc1cc(Nc2nc(N3CCC[C@@H](n4ccc5cc(C6CC6)ccc5c4=O)C3)cnc2C(N)=O)sn1 [Example A-107, 5-[(3R)-3-(6-cyclopropyl-1-oxo-1,2-dihydroisoquinolin-2-yl)piperidin-1-yl]-3-[(3-methyl-1,2-thiazol-5-yl)amino]pyrazine-2-carboxamide] | > 10000 nM
4 | C[C@@H]1[C@H](NC(=O)c2ccc(C3CC3)cc2F)CCCN1c1cnc(C(N)=O)c(Nc2nc3c(s2)CN(C)CC3)n1 [Example A-108, 5-[(2R,3R)-3-(4-cyclopropyl-2-fluorobenzamido)-2-methylpiperidin-1-yl]-3-({5-methyl-4H,5H,6H,7H-[1,3]thiazolo[5,4-c]pyridin-2-yl}amino)pyrazine-2-carboxamide] | > 10000 nM
5 | C[C@@H]1[C@H](NC(=O)c2ccc(C3CC3)cc2F)CCCN1c1cnc(C(N)=O)c(Nc2cnn(C)c2)n1 [Example A-110, 5-[(2R,3R)-3-(4-cyclopropyl-2-fluorobenzamido)-2-methylpiperidin-1-yl]-3-[(1-methyl-1H-pyrazol-4-yl)amino]pyrazine-2-carboxamide] | 1000 to 10000 nM
6 | CN1CCN(Cc2ccc(Nc3nc(N4CCC[C@@H](n5ccc6cc(C7CC7)ccc6c5=O)C4)cnc3C(N)=O)cc2)CC1 [Example A-111, 5-[(3R)-3-(6-cyclopropyl-1-oxo-1,2-dihydroisoquinolin-2-yl)piperidin-1-yl]-3-({4-[(4-methylpiperazin-1-yl)meth-yl]phenyl}amino)pyrazine-2-carboxamide] | 100 to 1000 nM
7 | CN1CCN(C(=O)c2ccc(Nc3nc(N4CCC[C@@H](n5ccc6cc(C7CC7)ccc6c5=O)C4)cnc3C(N)=O)cc2)CC1 [Example A-115, 5-[(3R)-3-(6-cyclo-propyl-1-oxo-1,2-dihydroisoquinolin-2-yl)piperidin-1-yl]-3-{[4-(4-methylpiperazine-1-carbonyl)phenyl]amino}pyr-azine-2-carboxamide] | 100 to 1000 nM
8 | C[C@@H]1[C@H](NC(=O)c2ccc(C3CC3)cc2F)CCCN1c1cnc(C(N)=O)c(Nc2ccc(C3(C)CCN(C4CCCC4)CC3)cc2)n1 [Example A-121, 3-{[4-(1-cyclopentyl-4-methylpiperidin-4-yl)phenyl]amino}-5-[(2R,3R)-3-(4-cyclopropyl-2-fluorobenzamido)-2-methylpiperidin-1-yl]pyrazine-2-carboxamide] | 100 to 1000 nM
9 | C[C@@H]1[C@H](NC(=O)c2ccc(C3CC3)cc2F)CCCN1c1cnc(C(N)=O)c(Nc2ccc(C(=O)N3CCN(C)CC3)cc2)n1 [Example A-122, 5-[(2R,3R)-3-(4-cyclopropyl-2-fluorobenzamido)-2-methylpiperidin-1-yl]-3-{[4-(4-methylpiperazine-1-carbonyl)phenyl]amino}pyr-azine-2-carboxamide] | 100 to 1000 nM
10 | C[C@@H]1[C@H](NC(=O)c2ccc(C3CC3)cc2F)CCCN1c1cnc(C(N)=O)c(Nc2ccc(N3CCN(C4CCCC4)CC3)cc2)n1 [Example A-125, 3-{[4-(4-cyclopentylpiperazin-1-yl)phenyl]amino}-5-[(2R,3R)-3-(4-cyclopropyl-2-fluorobenzamido)-2-methylpiperidin-1-yl]pyrazine-2-carboxamide] | 100 to 1000 nM
11 | C[C@@H]1[C@H](NC(=O)c2ccc(C3CC3)cc2F)CCCN1c1cnc(C(N)=O)c(Nc2cnn(C)c2)c1 [Example A-127, 5-[(2R,3R)-3-(4-cyclopropyl-2-fluorobenzamido)-2-methylpiperidin-1-yl]-3-[(1-methyl-1H-pyrazol-4-yl)amino]pyridine-2-carboxamide] | 1000 to 10000 nM
12 | C[C@@H]1[C@H](NC(=O)c2ccc(C3CC3)cc2F)CCCN1c1cnc(C(N)=O)c(Nc2cc(CN3CCOCC3)ns2)n1 [Example A-128, 5-[(2R,3R)-3-(4-cyclopropyl-2-fluorobenzamido)-2-methylpiperidin-1-yl]-3-{[3-(morpholin-4-ylmethyl)-1,2-thiazol-5-yl]amino}pyrazine-2-carboxamide] | 100 to 1000 nM
13 | CN1CCN(c2ccc(Nc3nc(N4CCC[C@@H](n5ccc6cc(C7CC7)cc(F)c6c5=O)C4)cnc3C(N)=O)cc2)CC1 [Example A-133, 5-[(3R)-3-(6-cyclo-propyl-8-fluoro-1-oxo-1,2-dihydroisoquinolin-2-yl)piperidin-1-yl]-3-{[4-(4-methylpiperazin-1-yl)phenyl]amino}pyrazine-2-carboxamide] | 100 to 1000 nM
14 | C[C@@H]1[C@H](n2ccc3cc(C4CC4)ccc3c2=O)CCCN1c1cnc(C(N)=O)c(Nc2ccc(N3CCN(C)CC3)cc2)n1 [Example A-140, 5-[(2R,3R)-3-(6-cyclopropyl-1-oxo-1,2-dihydro-isoquinolin-2-yl)-2-methylpiperidin-1-yl]-3-{[4-(4-methylpiperazin-1-yl)phenyl]amino}pyrazine-2-carboxamide] | 1000 to 10000 nM
15 | CC1(c2ccc(Nc3nc(N4CCC[C@@H](n5ccc6cc(C7CC7)ccc6c5=O)C4)cnc3C(N)=O)cc2)CCN(C2CCCC2)CC1 [Example A-141, 3-{[4-(1-cyclopentyl-4-methylpiperidin-4-yl)phenyl]amino}-5-[(3R)-3-(6-cyclopropyl-1-oxo-1,2-dihydroisoquinolin-2-yl)piperidin-1-yl]pyrazine-2-carboxamide] | 100 to 1000 nM
16 | CC(C)N1CCN(c2ccc(Nc3nc(N4CCC[C@@H](NC(=O)c5ccc(C6CC6)cc5F)[C@H]4C)cnc3C(N)=O)cc2)CC1 [Example A-149, 5-[(2R,3R)-3-(4-cyclopropyl-2-fluorobenzamido)-2-methylpiperidin-1-yl]-3-({4-[4-(propan-2-yl)piperazin-1-yl]phenyl}amino)pyrazine-2-carboxamide] | 1000 to 10000 nM
17 | C[C@@H]1[C@H](NC(=O)c2ccc(C3CC3)cc2F)CCCN1c1cnc(C(N)=O)c(Nc2ccc(S(=O)(=O)N3CCN(C)CC3)cc2)n1 [Example A-156, 5-[(2R,3R)-3-(4-cyclopropyl-2-fluorobenzamido)-2-methylpiperidin-1-yl]-3-({4-[(4-methylpiperazin-1-yl)sulfonyl]phenyl}amino)pyr-azine-2-carboxamide] | > 10000 nM
18 | Cn1cc(Nc2nc(N3CCC[C@@H](n4ccc5cc(C6CC6)ccc5c4=O)C3)cnc2C(N)=O)cn1 [Example A-167, 5-[(3R)-3-(6-cyclopropyl-1-oxo-1,2-dihydroisoquinolin-2-yl)piperidin-1-yl]-3-[(1-methyl-1H-pyrazol-4-yl)amino]pyrazine-2-carboxamide] | > 10000 nM
19 | C[C@@H]1[C@H](NC(=O)c2ccc(C3CC3)cc2)CCCN1c1cnc(C(N)=O)c(Nc2cnn(C)c2)n1 [Example A-169, 5-[(2R,3R)-3-(4-cyclopropylbenzamido)-2-methylpiperidin-1-yl]-3-[(1-methyl-1H-pyrazol-4-yl)amino]pyrazine-2-carboxamide] | 1000 to 10000 nM
20 | C[C@@H]1[C@H](NC(=O)c2ccc(C3CC3)cc2)CCCN1c1cnc(C(N)=O)c(Nc2ccc(N3CCN(C)CC3)cc2)n1 [Example A-170, 5-[(2R,3R)-3-(4-cyclopropylbenzamido)-2-methylpiperidin-1-yl]-3-{[4-(4-methylpiperazin-1-yl)phenyl]amino}pyrazine-2-carboxamide] | 1000 to 10000 nM
21 | C[C@@H]1[C@H](NC(=O)c2ccc(C3CC3)cc2F)CCCN1c1cnc(C(N)=O)c(Nc2ccc(N3CCN(C)CC3)c(F)c2)n1 [Example A-171, 5-[(2R,3R)-3-(4-cyclopropyl-2-fluorobenzamido)-2-methylpiperidin-1-yl]-3-{[3-fluoro-4-(4-methylpiperazin-1-yl)phenyl]amino}pyrazine-2-carboxamide] | 1000 to 10000 nM
22 | C[C@@H]1[C@H](NC(=O)c2ccc(C3CC3)cc2)CCCN1c1cnc(C(N)=O)c(Nc2cnn(C3CCN(C)CC3)c2)n1 [Example A-173] | 1000 to 10000 nM
